Data reported in patent publication US20120122860A1, “SOLID FORMS OF SULFONAMIDES AND AMINO ACIDS” (Plexxikon, Inc., priority 2009, published 2012).
pIC50: −log10 of the molar value.

What was measured:
[1] = biological target: C-Raf (Homo sapiens, UniProt P04049); assay: Kinase activity assay, C-Raf
[2] = biological target: B-Raf (Homo sapiens, UniProt P15056); assay: Kinase activity assay, B-Raf; format: biochemical; settings: read-out: activity toward kinase B-Raf, IC50
[3] = biological target: B-Raf V600E (Homo sapiens, UniProt P15056, V600E); assay: Kinase activity assay, B-Raf V600E; format: biochemical; settings: read-out: activity toward kinase B-Raf V600E, IC50
Sequence of B-Raf V600E (P15056 whole entry V600E): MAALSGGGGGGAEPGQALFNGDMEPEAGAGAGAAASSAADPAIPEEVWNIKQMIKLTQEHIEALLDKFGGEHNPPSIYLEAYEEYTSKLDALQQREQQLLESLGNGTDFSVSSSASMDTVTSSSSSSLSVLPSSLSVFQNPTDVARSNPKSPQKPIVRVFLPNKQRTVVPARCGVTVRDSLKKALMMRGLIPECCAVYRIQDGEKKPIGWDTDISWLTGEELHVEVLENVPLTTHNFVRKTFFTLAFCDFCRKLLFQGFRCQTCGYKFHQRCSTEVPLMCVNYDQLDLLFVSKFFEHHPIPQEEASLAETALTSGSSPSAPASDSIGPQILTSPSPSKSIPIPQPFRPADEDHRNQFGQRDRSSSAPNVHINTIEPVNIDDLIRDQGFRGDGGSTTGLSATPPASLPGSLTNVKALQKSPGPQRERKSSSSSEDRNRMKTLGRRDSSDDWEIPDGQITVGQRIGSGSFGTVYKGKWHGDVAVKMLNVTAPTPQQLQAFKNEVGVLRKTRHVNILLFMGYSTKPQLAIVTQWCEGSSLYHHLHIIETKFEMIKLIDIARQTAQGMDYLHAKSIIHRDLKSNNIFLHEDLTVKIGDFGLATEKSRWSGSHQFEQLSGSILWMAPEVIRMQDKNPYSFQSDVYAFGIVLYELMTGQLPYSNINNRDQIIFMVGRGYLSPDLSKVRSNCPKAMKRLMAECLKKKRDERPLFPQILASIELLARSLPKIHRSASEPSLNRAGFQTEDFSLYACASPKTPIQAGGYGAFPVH

[4] = biological target: T1, TEC (Homo sapiens, UniProt P42680); assay: Kinase activity assay, TEC
T1 sequence (P42680 1-631): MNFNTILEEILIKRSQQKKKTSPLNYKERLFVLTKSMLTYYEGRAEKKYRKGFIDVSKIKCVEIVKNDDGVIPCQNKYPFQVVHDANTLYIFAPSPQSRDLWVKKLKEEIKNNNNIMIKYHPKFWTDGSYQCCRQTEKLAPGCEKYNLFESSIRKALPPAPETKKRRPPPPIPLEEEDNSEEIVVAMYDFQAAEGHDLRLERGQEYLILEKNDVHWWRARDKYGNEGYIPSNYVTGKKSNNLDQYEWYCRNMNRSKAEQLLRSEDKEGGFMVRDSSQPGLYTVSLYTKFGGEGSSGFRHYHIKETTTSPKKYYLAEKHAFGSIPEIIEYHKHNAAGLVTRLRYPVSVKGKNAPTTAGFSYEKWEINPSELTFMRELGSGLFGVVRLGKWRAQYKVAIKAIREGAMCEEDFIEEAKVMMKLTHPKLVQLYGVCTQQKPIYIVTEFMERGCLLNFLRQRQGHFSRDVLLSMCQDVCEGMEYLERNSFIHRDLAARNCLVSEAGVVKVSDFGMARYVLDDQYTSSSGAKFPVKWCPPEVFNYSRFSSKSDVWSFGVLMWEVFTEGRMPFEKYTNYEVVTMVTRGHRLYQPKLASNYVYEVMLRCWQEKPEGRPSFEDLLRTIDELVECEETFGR

[5] = biological target: Kdr (Homo sapiens, UniProt P35968); assay: Kinase activity assay, Kdr
Sequence of Kdr (P35968 20-1356): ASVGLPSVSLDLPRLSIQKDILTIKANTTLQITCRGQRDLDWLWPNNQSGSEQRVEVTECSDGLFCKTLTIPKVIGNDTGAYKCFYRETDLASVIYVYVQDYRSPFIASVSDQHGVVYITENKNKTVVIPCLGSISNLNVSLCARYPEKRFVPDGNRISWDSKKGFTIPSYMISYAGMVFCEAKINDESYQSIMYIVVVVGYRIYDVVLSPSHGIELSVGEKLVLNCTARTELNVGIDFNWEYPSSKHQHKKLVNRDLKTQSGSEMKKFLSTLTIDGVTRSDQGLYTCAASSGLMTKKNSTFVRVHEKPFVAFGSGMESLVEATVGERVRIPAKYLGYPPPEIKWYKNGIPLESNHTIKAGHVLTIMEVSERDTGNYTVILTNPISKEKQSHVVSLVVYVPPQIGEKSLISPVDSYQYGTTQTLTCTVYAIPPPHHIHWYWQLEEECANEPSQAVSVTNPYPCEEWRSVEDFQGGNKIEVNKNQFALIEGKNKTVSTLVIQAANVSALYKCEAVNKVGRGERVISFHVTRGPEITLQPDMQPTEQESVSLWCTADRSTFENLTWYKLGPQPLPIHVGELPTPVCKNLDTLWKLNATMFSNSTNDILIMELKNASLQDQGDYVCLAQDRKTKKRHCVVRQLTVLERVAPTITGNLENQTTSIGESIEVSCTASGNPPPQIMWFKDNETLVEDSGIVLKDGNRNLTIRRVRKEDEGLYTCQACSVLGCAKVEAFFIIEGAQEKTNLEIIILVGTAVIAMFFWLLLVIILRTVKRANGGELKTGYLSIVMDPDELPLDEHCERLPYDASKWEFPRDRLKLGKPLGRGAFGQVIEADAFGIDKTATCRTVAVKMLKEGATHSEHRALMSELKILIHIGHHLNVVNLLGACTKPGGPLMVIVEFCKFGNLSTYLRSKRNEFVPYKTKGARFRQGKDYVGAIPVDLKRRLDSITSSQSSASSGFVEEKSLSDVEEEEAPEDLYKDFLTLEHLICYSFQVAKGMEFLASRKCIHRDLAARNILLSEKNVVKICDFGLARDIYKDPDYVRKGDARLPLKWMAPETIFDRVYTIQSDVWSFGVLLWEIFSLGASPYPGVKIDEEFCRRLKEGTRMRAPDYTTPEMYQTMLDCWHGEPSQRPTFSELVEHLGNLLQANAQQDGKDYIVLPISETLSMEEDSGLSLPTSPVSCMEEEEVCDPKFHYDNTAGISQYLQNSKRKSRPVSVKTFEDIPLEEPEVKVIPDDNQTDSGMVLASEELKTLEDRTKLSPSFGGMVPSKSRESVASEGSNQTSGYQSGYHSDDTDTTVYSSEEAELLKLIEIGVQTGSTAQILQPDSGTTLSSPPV

[6] = biological target: Fms (Homo sapiens, UniProt P07333); assay: Kinase activity assay, Fms
Sequence of Fms (P07333 20-972): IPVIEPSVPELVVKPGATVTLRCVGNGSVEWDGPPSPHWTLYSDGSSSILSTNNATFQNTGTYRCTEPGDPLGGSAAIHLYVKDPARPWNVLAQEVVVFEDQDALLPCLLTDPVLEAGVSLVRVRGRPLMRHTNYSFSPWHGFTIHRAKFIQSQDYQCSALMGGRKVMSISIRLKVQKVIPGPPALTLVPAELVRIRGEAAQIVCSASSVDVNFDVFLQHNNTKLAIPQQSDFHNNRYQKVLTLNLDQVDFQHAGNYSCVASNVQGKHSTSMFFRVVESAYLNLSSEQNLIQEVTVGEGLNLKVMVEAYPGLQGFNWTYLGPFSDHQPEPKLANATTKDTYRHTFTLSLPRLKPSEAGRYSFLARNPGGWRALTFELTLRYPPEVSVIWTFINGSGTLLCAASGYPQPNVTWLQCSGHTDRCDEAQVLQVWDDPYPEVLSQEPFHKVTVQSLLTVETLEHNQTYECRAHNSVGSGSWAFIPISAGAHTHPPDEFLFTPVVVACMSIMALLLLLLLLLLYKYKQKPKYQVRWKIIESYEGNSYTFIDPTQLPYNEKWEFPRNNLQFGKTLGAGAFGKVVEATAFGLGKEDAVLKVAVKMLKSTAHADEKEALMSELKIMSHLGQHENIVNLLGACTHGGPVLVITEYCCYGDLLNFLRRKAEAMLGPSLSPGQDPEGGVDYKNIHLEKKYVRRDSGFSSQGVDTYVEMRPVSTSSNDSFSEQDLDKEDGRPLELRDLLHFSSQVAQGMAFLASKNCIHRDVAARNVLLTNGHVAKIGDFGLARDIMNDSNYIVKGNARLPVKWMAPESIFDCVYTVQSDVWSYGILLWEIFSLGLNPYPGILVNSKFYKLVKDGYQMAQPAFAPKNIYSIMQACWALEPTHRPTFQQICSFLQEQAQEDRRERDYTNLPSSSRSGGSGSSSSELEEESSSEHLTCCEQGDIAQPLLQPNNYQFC

[7] = biological target: Src (Homo sapiens, UniProt P12931); assay: Kinase activity assay, Src
Sequence of Src (P12931 whole entry): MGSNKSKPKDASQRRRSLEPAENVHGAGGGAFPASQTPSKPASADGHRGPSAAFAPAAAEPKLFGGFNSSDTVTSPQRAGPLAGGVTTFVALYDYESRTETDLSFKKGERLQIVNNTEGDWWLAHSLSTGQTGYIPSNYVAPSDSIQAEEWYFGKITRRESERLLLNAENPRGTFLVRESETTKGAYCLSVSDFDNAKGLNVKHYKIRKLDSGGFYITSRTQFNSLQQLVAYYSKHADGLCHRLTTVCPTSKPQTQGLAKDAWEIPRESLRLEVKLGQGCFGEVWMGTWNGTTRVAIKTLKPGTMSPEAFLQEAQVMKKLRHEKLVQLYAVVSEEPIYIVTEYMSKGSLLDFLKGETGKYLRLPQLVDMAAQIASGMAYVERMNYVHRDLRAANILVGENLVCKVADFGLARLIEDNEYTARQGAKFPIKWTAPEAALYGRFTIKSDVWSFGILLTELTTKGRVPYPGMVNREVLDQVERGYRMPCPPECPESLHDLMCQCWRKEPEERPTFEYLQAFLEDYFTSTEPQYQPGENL

[8] = biological target: T2, A-Raf (Homo sapiens, UniProt P10398); assay: Kinase activity assay, A-Raf
T2 sequence (P10398 1-606): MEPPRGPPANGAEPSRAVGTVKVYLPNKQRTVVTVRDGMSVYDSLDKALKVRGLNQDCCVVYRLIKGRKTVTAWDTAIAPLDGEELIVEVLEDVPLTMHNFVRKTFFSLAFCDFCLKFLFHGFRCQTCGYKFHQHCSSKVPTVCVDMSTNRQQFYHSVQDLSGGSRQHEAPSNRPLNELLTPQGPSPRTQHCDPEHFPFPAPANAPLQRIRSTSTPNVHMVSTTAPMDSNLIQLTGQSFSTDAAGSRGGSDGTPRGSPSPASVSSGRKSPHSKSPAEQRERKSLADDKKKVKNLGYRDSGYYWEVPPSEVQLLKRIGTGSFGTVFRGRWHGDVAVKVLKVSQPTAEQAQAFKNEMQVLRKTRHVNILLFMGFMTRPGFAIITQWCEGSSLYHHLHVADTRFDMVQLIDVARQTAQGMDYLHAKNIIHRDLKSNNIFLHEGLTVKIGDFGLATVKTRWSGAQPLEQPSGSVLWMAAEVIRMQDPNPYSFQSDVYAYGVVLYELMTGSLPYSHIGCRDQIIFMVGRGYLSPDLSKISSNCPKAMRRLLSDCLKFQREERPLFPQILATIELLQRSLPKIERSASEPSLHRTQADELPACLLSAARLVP

[9] = biological target: Kit (Homo sapiens, UniProt P10721); assay: Kinase activity assay, Kit
Sequence of Kit (P10721 26-976): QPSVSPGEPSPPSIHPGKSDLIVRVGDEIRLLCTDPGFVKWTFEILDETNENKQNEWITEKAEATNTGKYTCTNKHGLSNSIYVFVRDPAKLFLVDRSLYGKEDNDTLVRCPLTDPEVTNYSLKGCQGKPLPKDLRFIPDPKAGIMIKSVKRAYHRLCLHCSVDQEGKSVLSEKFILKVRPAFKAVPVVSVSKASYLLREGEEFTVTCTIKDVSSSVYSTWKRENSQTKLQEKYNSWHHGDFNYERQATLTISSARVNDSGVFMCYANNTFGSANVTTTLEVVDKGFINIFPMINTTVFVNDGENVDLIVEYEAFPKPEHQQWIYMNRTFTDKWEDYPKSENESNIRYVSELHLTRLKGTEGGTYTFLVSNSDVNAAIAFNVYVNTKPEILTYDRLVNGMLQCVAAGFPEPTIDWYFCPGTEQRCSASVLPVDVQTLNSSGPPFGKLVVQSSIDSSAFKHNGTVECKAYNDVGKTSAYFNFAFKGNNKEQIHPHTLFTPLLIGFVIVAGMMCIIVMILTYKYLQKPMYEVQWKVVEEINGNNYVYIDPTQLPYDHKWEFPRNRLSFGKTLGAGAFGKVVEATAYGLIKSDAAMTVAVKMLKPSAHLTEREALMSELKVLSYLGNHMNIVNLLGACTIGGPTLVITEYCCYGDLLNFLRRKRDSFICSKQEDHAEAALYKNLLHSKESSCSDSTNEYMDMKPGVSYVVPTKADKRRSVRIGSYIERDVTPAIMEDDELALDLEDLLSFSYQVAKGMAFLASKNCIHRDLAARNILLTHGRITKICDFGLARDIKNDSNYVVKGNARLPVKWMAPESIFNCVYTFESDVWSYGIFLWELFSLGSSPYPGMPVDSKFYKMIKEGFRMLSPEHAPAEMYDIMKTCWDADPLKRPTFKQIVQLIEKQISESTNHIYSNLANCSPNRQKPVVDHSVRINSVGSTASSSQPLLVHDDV

[10] = biological target: MAP4K4 (Homo sapiens, UniProt O95819); assay: Kinase activity assay, MAP4K4

Measured: pIC50

Sequence of B-Raf (P15056 whole entry): as the sequence (P15056 whole entry V600E) above, with E600V counted along it

N#Cc1cnc2[nH]cc(C(=O)c3c(F)ccc(NS(=O)(=O)c4cccnc4)c3F)c2c1 [P-2072, Pyridine-3-sulfonic acid [3-(5-cyano-1H-pyrrolo[2,3-b]pyridine-3-carbonyl)-2,4-difluoro-phenyl]-amide]
≥ 5.00: [1] | [2] | [3] | [4]

CCCc1ccc(-c2cnc3[nH]cc(C(=O)c4c(F)ccc(NS(=O)(=O)CCC)c4F)c3c2)cn1 [P-2224, Propane-1-sulfonic acid {2,4-difluoro-3-[5-(6-propyl-pyridin-3-yl)-1H-pyrrolo[2,3-b]pyridine-3-carbonyl]-phenyl}-amide]
not listed: [4]
≥ 5.00: all other assays above

CCCS(=O)(=O)Nc1ccc(F)c(C(=O)c2c[nH]c3ncc(CCC(=O)OC)cc23)c1F [P-2230, 3-{3-[2,6-Difluoro-3-(propane-1-sulfonylamino)-benzoyl]-1H-pyrrolo[2,3-b]pyridin-5-yl}-propionic acid methyl ester]
not listed: [4]
≥ 5.00: all other assays above

CCCS(=O)(=O)Nc1ccc(F)c(C(=O)c2c[nH]c3ncc(-c4ccc(OCCN5CCOCC5)nc4)cc23)c1F [P-2232, Propane-1-sulfonic acid (2,4-difluoro-3-{5-[6-(2-morpholin-4-yl-ethoxy)-pyridin-3-yl]-1H-pyrrolo[2,3-b]pyridine-3-carbonyl}-phenyl)-amide]
not listed: [4]
≥ 5.00: all other assays above

CCCS(=O)(=O)Nc1ccc(F)c(C(=O)c2c[nH]c3ncc(-c4ccc(OCCN5CCCC5)nc4)cc23)c1F [P-2233, Propane-1-sulfonic acid (2,4-difluoro-3-{5-[6-(2-pyrrolidin-1-yl-ethoxy)-pyridin-3-yl]-1H-pyrrolo[2,3-b]pyridine-3-carbonyl}-phenyl)-amide]
not listed: [4]
≥ 5.00: all other assays above

CCCS(=O)(=O)Nc1ccc(F)c(C(=O)c2c[nH]c3ncc(-c4ccc(OCCCN5CCOCC5)nc4)cc23)c1F [P-2236, Propane-1-sulfonic acid (2,4-difluoro-3-{5-[6-(3-morpholin-4-yl-propoxy)-pyridin-3-yl]-1H-pyrrolo[2,3-b]pyridine-3-carbonyl}-phenyl)-amide]
not listed: [4]
≥ 5.00: all other assays above

CC(C)S(=O)(=O)Nc1ccc(F)c(C(=O)c2c[nH]c3ncc(C#N)cc23)c1F [P-2282, Propane-2-sulfonic acid [3-(5-cyano-1H-pyrrolo[2,3-b]pyridine-3-carbonyl)-2,4-difluoro-phenyl]-amide]
≥ 5.00: [1] | [9] | [2] | [3] | [4]

CC(C)CS(=O)(=O)Nc1ccc(F)c(C(=O)c2c[nH]c3ncc(C#N)cc23)c1F [P-2307, 2-Methyl-propane-1-sulfonic acid [3-(5-cyano-1H-pyrrolo[2,3-b]pyridine-3-carbonyl)-2,4-difluoro-phenyl]-amide]
≥ 5.00: [1] | [9] | [2] | [3] | [4]

CCC(C)S(=O)(=O)Nc1ccc(F)c(C(=O)c2c[nH]c3nccc(OC)c23)c1F (stereo not shown) [P-2313, Butane-2-sulfonic acid [2,4-difluoro-3-(4-methoxy-1H-pyrrolo[2,3-b]pyridine-3-carbonyl)-phenyl]-amide]
≥ 5.00: [1] | [5] | [7] | [2] | [3] | [4]

COc1ccnc2[nH]cc(C(=O)c3c(F)ccc(NS(=O)(=O)CCC(F)(F)F)c3F)c12 [P-2330, 3,3,3-Trifluoro-propane-1-sulfonic acid [2,4-difluoro-3-(4-methoxy-1H-pyrrolo[2,3-b]pyridine-3-carbonyl)-phenyl]-amide]
≥ 5.00: [1] | [7] | [2] | [3] | [4]

COc1ccnc2[nH]cc(C(=O)c3c(F)ccc(NS(=O)(=O)N(C)C)c3F)c12 [P-2376, N,N-dimethylamino-sulfonic acid [2,4-difluoro-3-(4-methoxy-1H-pyrrolo[2,3-b]pyridine-3-carbonyl)-phenyl]-amide]
≥ 5.00: [1] | [5] | [7] | [2] | [3] | [4]

COc1ccnc2[nH]cc(C(=O)c3c(F)ccc(NS(=O)(=O)N4CCCC4)c3F)c12 [P-2377, Pyrrolidine-1-sulfonic acid [2,4-difluoro-3-(4-methoxy-1H-pyrrolo[2,3-b]pyridine-3-carbonyl)-phenyl]-amide]
≥ 5.00: [1] | [5] | [7] | [2] | [3] | [4]

CCN(CC)S(=O)(=O)Nc1ccc(F)c(C(=O)c2c[nH]c3nccc(OC)c23)c1F [P-2378, N,N-diethylamino-sulfonic acid [2,4-difluoro-3-(4-methoxy-1H-pyrrolo[2,3-b]pyridine-3-carbonyl)-phenyl]-amide]
≥ 5.00: [5] | [7] | [3] | [4]

N#Cc1cnc2[nH]cc(C(=O)c3cccc(NS(=O)(=O)C4CCCC4)c3F)c2c1 [P-2417, Cyclopentanesulfonic acid [3-(5-cyano-1H-pyrrolo[2,3-b]pyridine-3-carbonyl)-2-fluoro-phenyl]-amide]
≥ 5.00: [1] | [5] | [2] | [3] | [4]
